Drawing on ChEMBL document CHEMBL1141690, “New PPARgamma ligands based on barbituric acid: virtual screening, synthesis and receptor binding studies” (Bioorg Med Chem Lett, 2008), this text covers inhibition and IC50 for 14 compounds.

The target of one assay is T1, Peroxisome proliferator-activated receptor gamma (Mus musculus) (UniProt P37238).
T1 sequence (whole entry): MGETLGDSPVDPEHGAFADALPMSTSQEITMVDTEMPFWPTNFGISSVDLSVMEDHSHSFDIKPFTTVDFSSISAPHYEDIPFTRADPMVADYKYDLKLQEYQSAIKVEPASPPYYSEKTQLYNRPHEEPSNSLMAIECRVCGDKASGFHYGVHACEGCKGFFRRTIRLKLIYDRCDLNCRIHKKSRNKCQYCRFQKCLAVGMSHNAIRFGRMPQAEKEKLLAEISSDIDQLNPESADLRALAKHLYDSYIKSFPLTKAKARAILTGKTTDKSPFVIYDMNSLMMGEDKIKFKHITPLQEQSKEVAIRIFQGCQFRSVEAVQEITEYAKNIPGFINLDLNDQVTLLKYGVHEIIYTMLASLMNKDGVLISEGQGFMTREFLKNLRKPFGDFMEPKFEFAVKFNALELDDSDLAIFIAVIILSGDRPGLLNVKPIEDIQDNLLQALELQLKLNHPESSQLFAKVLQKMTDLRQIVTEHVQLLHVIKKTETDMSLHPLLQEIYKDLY
The assay is described as follows: Displacement of [3H]rosiglitazone from mouse PPARgamma receptor at 10 uM by scintillation proximation assay.
`O=C1NC(=O)C(=Cc2ccc(OCCn3c4ccccc4c4ccccc43)cc2)C(=O)N1` yielded an inhibition below 20%.

For the compound `O=C1NC(=O)C(=Cc2ccc(OCCOc3ccc(Br)cc3)cc2)C(=O)N1`, the inhibition is below 20%.

In turn, `Cc1ccc(OCCOc2ccc(C=C3C(=O)NC(=O)NC3=O)cc2)cc1` returned an inhibition below 20%.

For the compound `N#Cc1ccc(OCCCOc2ccc(C=C3C(=O)NC(=O)NC3=O)cc2)cc1`, the inhibition is below 20%.

The compound `O=C1NC(=O)C(=Cc2ccc(OCCOc3ccc4ccccc4c3)cc2)C(=O)N1` registered an inhibition below 20%.

As for `O=C1NC(=O)C(=Cc2ccc(OCCOc3ccccn3)cc2)C(=O)N1`, the inhibition was below 20%.

For `O=C1NC(=O)C(=Cc2ccc(OCCn3ccc4cccnc43)cc2)C(=O)N1`, the inhibition was below 20%.

In turn, `CC(C)c1ccc(OCCCOc2ccc(C=C3C(=O)NC(=O)NC3=O)cc2)cc1` displayed an inhibition below 20%.

Another assay concerns the target T2, Peroxisome proliferator-activated receptor gamma (Mus musculus, UniProt P37238).
T2 sequence (P37238 whole entry): T1 sequence (whole entry)
The assay is described as follows: Displacement of [3H]rosiglitazone from mouse PPARgamma receptor by scintillation proximation assay.
Regarding `N#Cc1ccc(OCCOc2ccc(C=C3C(=O)NC(=O)NC3=O)cc2)cc1`, the IC50 came out at 200 nM.

Compound `Cc1ccc(OCCOc2cccc(C=C3C(=O)NC(=O)NC3=O)c2)cc1` returned an IC50 of 800 nM.

Regarding `O=C1NC(=O)C(=Cc2ccc(OCCN3c4ccccc4Oc4ccccc43)cc2)C(=O)N1`, the IC50 was determined as 500 nM.

As to `O=C1NC(=O)C(=Cc2ccc(Oc3ccccc3)cc2)C(=O)N1`, the IC50 is 100 nM.

Compound `O=C1NC(=O)C(=Cc2ccc(OCCOc3ccc([N+](=O)[O-])cc3)cc2)C(=O)N1` had a 50% inhibitory concentration (IC50) of 2500 nM.

For the compound `COc1ccc(OCCOc2ccc(C=C3C(=O)NC(=O)NC3=O)cc2)cc1`, the IC50 came out at 200 nM.
